{
  "source": "patent US20060173080A1",
  "about": "“Methods of modulating TNF using bupropion” (The Regents of the University of California, priority 2002, published 2006)",
  "key": {"IFN-gamma": {"system": "IFN-gamma", "experiment": "Serum IFN-gamma by ELISA in LPS-challenged mice", "type": "in vivo, BALB/c mice", "conditions": "bupropion 100 mg/kg i.p. 1 h before 600 μg LPS i.p., serum 4 h after LPS", "protocol": "(§1) To study the immunomodulatory effects of bupropion we used a mouse model in which TNF production is induced by stimulation with lipopolysaccharide (LPS) (Bozza et al, The PACAP-type I receptor agonist maxadilan from sand fly saliva protects mice against lethal endotoxemia by a mechanism partially dependent on IL-10, Eur. J. Immunol. 28, 3120-3127, 1998). BALB/c mice were injected intraperitoneally (i.p.) with bupropion or placebo 1 h prior to i.p. injection of LPS (600 ug/mouse).\nMale, 6 weeks old BALB/c mice were used in LPS-induced shock experiments. All mice were raised and maintained at the animal facilities at the Goncalo Moniz Research Center-FIOCRUZ, and provided with rodent diet and water ad libitum. Animal numbers in experimental groups were the minimum necessary to permit statistical analysis. All animals were sacrificed under anaesthesia. […]\n(§2) TNF, IL-1beta, IFN-gamma and IL-10 concentrations in serum samples or in supernatants from macrophage cultures were determined by enzyme-linked immunosorbent assay (ELISA) using antibody pairs and recombinant cytokines from R&D systems (Minneapolis, Minn., USA), according to the manufacturer's instructions. After incubation with streptoavidin-peroxidase conjugate (Sigma), the reaction was developed using 3,3′, 5,5′-tetramethylbenzidine (TMB) peroxidase substrate and read at 450 nm. The serum concentration of nitrite (NO2−) was determined by the Griess reaction, as an indicator of nitric oxide production (Green et al., Analysis of nitrate nitrite and [^15N] nitrite in biological fluids. Anal. Biochem 126, 131-138, 1982). […] The absorbance of the reaction product at 540 nm was measured using an ELISA reader. The NO2^− concentration was determined by using sodium nitrite as standard. Data were analyzed using Student's t test, one-way ANOVA or Newman-Keuls multiple comparison test, using Graph Pad Prism 3.0 software. […]"}, "IL-10": {"system": "IL-10", "experiment": "Serum IL-10 by ELISA in LPS-challenged mice", "type": "in vivo, BALB/c mice", "conditions": "bupropion 100 mg/kg i.p. 1 h before 600 μg LPS i.p., serum 90 min after LPS, hydrochloride", "protocol": "as §1\nMale, 6 weeks old BALB/c mice were used in LPS-induced shock experiments. […]\nas §2, with “reader.” for “reader. The NO2^− concentration was determined by using sodium nitrite as standard. Data were analyzed using Student's t test, one-way ANOVA or Newman-Keuls multiple comparison test, using Graph Pad Prism 3.0 software.”"}, "CD patients": {"system": "CD patients", "conditions": "Kast and Altschuler 2001; cited from earlier work"}},
  "note": "Structures can show the parent of a compound that is named as a salt.",
  "data": [
    {"smiles": "CC(NC(C)(C)C)C(=O)c1cccc(Cl)c1", "note": "(racemic) [bupropion, (.±.)-1-(3-chlorophenyl)-2-[(1,1-dimethylethyl)amino]-1-propanone hydrochloride]", "values": [
      {"measurement": "serum IFN-gamma level compared with placebo", "setting": "IFN-gamma; listed as bupropion hydrochloride", "result": "decrease"},
      {"measurement": "serum IFN-gamma level compared with placebo", "setting": "IFN-gamma; hydrochloride", "result": "significantly reduced"},
      {"measurement": "serum IFN-gamma level compared with placebo", "setting": "IFN-gamma; listed as Bupropion, hydrochloride", "result": "significantly decreased"},
      {"measurement": "serum IL-10 level compared with placebo", "setting": "IL-10", "result": "significantly raised"},
      {"measurement": "serum IL-10 level compared with placebo", "setting": "IL-10; listed as Bupropion", "result": "significantly increased"},
      {"measurement": "clinical remission of CD (published cases)", "setting": "CD patients", "result": "clinical remission"}
    ]}
  ]
}
